Test results taken from US12419869B2, “Methods of treating multiple sclerosis” (Vanda Pharmaceuticals Inc., priority 2021, dated 2025).

Tests used:
CYP3A4 and UGT1A1 = assay: In vitro assessments and limited clinical data, strong CYP3A4 and UGT1A1 inducers; details: e.g., rifampin, phenytoin, carbamazepine
Excerpt: It is unclear whether this decrease in ponesimod systemic exposure would be considered of clinical relevance. Coadministration of PONVORY with strong CYP3A4 and UGT1A1 inducers is not recommended.

[1] = Coadministration with oral hormonal contraceptive; type: in vivo, human; details: 1 mg norethisterone/norethindrone and 35 μg ethinyl estradiol
Excerpt: Therefore, concomitant use of ponesimod is not expected to decrease the efficacy of hormonal contraceptives. No interaction studies have been performed with oral contraceptives containing other progestogens: however, an effect of ponesimod on their exposure is not expected.

rat = assay: Micronucleus in rat; details: in vivo
Excerpt: Ponesimod was negative in a battery of in vitro (Ames, chromosomal aberration in mammalian cells) and in vivo (micronucleus in rat) assays.

heart rate = assay: Heart rate pharmacodynamics, dose dependence; design: species or system human; details: in vivo
Protocol: PONVORY causes a transient dose-dependent reduction in heart rate (HR) and AV conduction delays upon treatment initiation [see Warnings and Precautions (5.2)]. The heart rate decreases plateaued at doses greater than or equal to 40 mg [2 times the recommended maintenance dosage], and bradyarrhythmic events (AV blocks) were detected at a higher incidence under PONVORY treatment, compared to placebo. This effect starts within the first hour of dosing and is maximal at 2-4 hours post-dose. HR generally returns to pre-dose values by 4-5 hours post-dose on Day 1, and the effect diminishes with repeated administration. indicating tolerance.

S1P receptor 1 = S1P receptor 1 (Homo sapiens, UniProt P21453); assay: S1P receptor binding / activity
Excerpt: Ponesimod is extensively metabolized prior to excretion in humans, though unchanged ponesimod was the main circulating component in plasma. […] M13 and M12 are respectively about 20% and 6% of total drug-related exposure.

[2] = test system: Patients (18-55 years) with RMS; assay: No evidence of disease activity (NEDA-3) status, baseline to week 108; type: in vivo, human
Protocol: Patients (18-55 years) with RMS (expanded disability status scale scores: 0-5.5) were randomized (1:1) to receive ponesimod (PON) 20 mg or teriflunomide (TER) 14 mg for 108 weeks. MRI assessments were: volume of T2 lesions; mean number of new gadolinium-enhancing (Gd+) T1 lesions and new/enlarging T2 lesions; and absence of active MRI lesions at week 108. NEDA-3 status (absence of confirmed relapse, Gd+T1 lesions and new/enlarging T2 lesions on annual MRIs, and 12-week confirmed disability accumulation) was evaluated from baseline to week 108.

pregnant rabbits = assay: Embryofetal development study in pregnant rabbits, oral; type: in vivo
Excerpt: No maternal toxicity was observed.

[3] = test system: adult subjects with relapsing MS; assay: Fatigue-related symptoms, FSIQ-RMS weekly symptoms score, change from baseline to Week 108; type: in vivo, human
Protocol: In some embodiments, the patient-reported outcome questionnaire is the symptom domain of the FSIQ-RMS. The FSIQ-RMS symptom domain (FSIQ-RMS-S) consists of seven items assessing fatigue-related symptoms with a recall period of 24 hours measured on an 11-point numeric rating scale; the standardized symptom domain score ranges from 0 to 100 with a higher score indicating greater fatigue. This domain (i.e., section 1 of the questionnaire) is completed on 7 consecutive days.
The patient-reported outcome questionnaire used for the below Examples is the Fatigue Symptoms and Impact Questionnaire—Relapsing Multiple Sclerosis (FSIQ-RMS). The FSIQ-RMS is an MS specific 20-item PRO measure that comprises 2 domains: one measuring MS symptoms (7 items) and one measuring MS-related impacts (13 items). The 7 symptom items and 13 impact items (in 3 impacts subdomains: physical, cognitive and emotional, and coping) are presented below.
For the MS symptoms domain, the FSIQ-RMS asks about a patient's fatigue-related symptoms of relapsing MS over the past 24 hours while doing routine daily activities (e.g., housework, yard work, shopping, working, etc.) for Items 1-6 or while at rest (e.g., reading a book, watching TV, etc.) for Item 7. Patients are asked to select a response on a scale of 0 to 10 that best describes their experience and are asked to not skip any questions, with no answers being right or wrong.
Secondary efficacy variables and testing strategy: Four secondary efficacy endpoints were analyzed as per the statistical testing strategy outlined in FIG. 1. • Change from baseline to Week 108 in fatigue-related symptoms as measured by the symptoms domain of the FSIQ-RMS patient-reported outcome [Fatigue] • Cumulative number of combined unique active lesions from baseline to Week 108 on brain MRI [CUALs] • Time to first 12-week confirmed disability accumulation (CDA) from baseline to EOS on Expanded Disability Status Scale (EDSS) [12-week CDA] • Time to first 24-week CDA from baseline to EOS on EDSS [24-week CDA]
The FSIQ-RMS symptom domain (FSIQ-RMS-S) consists of seven items assessing fatigue-related symptoms with a recall period of 24 hours measured on an 11-point numeric rating scale; the standardized symptom domain score ranges from 0 to 100 with a higher score indicating greater fatigue. This domain (i.e., section 1 of the questionnaire) is completed on 7 consecutive days.
FSIQ-RMS was completed during the pre-randomization period, at Visits 6, 7, 10, and 12 (Weeks 12, 24, 60, 84), 14 (EOT), and at unscheduled visits due to relapses (R1, R2, etc.) or other unscheduled visits (U1, U2, etc.) as described below. If applicable, FSIQ-RMS was performed at the corresponding visits in the PTOP.
After randomization, the symptoms domain of the FSIQ-RMS (i.e., section 1 of the questionnaire) was completed by the subject at home on a daily basis, starting in the evening of the day of a visit when the FSIQ-RMS was administered (Day 1 of questionnaire administration cycle) and during the 6 subsequent days (i.e., over 7 days in total). Subjects returned the completed FSIQ-RMS diary at the next scheduled visit. On the seventh day, the subject completed the impact domain of the FSIQ-RMS (i.e., section 2 of the questionnaire). If applicable, at the end of the PTOP, the FSIQ-RMS was completed prior to Visit 14A (Week 108), ideally, during the 7 consecutive days preceding the visit.

[4] = Week 108, baseline EDSS <3.5 (title: ≤3.5)
[5] = Week 108, baseline fatigue below the median
[6] = Week 108, no Gd+ T1 lesions at baseline
[7] = Week 108, no prior DMT treatment

Sequence of S1P receptor 1 (P21453 whole entry): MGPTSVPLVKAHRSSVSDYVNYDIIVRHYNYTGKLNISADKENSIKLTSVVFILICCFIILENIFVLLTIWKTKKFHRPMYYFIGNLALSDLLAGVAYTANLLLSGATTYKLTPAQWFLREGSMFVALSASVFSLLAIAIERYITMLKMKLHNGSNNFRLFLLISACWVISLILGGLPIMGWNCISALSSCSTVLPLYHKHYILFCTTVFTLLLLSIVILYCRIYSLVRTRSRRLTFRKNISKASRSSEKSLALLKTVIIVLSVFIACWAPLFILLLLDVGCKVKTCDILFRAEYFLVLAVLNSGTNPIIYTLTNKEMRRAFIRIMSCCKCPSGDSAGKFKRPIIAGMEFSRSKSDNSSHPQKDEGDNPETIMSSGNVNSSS

With `CCC/N=C1\S/C(=C\c2ccc(OC[C@H](O)CO)c(Cl)c2)C(=O)N1c1ccccc1C` [Ponesimod, (R)-5-[3-chloro-4-(2,3-dihydroxy-propoxy)-benz[Z]ylidene]-2-([Z]-propylimino)-3-o-tolyl-thiazolidin-4-one] the “Effect of strong CYP3A4 and UGT1A1 inducers on systemic exposure” value (CYP3A4 and UGT1A1) was “may decrease the systemic exposure”, the “Pharmacokinetic interaction with oral hormonal contraceptive” value [1] was “no clinically relevant pharmacokinetic interaction” and the “Micronucleus in rat result” value (rat) was “negative”. For the same compound, the “Dose at which heart rate decreases plateaued” value (heart rate) was “greater than or equal to 40 mg”, the “Binding to S1P receptor 1” value (S1P receptor 1) was “binds with high affinity” and the “Odds ratio PON vs TER for NEDA-3” value [2] was 1.70. For the same compound, the “Patients achieving NEDA-3” value [2] was 28.2%, the “Embryofetal findings in rabbits” value (pregnant rabbits; 0, 0.25, 1, or 4 mg/kg/day oral, at highest dose) was “an increase in post-implantation loss and fetal variations” and the “No-effect dose for adverse effects on embryofetal development in rabbits” value (pregnant rabbits; rabbit, in vivo) was 1 mg/kg/day. The “Plasma exposure at no-effect dose vs humans at RHD” value (pregnant rabbits; rabbits) was “lower than that in humans”, the “FSIQ-RMS change from baseline to Week 108, mean difference ponesimod vs teriflunomide” value ([3]; Full Analysis Set) was −3.57 and the “Change from baseline to Week 108 in FSIQ-RMS weekly symptoms score (mean, MMRM)” value ([3]; Full Analysis Set, increase = worsening) was −0.01. The “Change in FSIQ-RMS-S total score: Improved (<−6.3), patients” value ([3]; Week 108, Full Analysis Set) was 30.5%, the “Change in FSIQ-RMS-S total score: Stable (−6.3 < × < +6.3), patients” value ([3]; Week 108, Full Analysis Set) was 38.4% and the “Change in FSIQ-RMS-S total score: Stable or Improved, patients” value ([3]; Week 108, Full Analysis Set) was 68.9%. The “Change in FSIQ-RMS-S total score: Worsened (≥6.3), patients” value ([3]; Week 108, Full Analysis Set) was 31.1%, the “FSIQ-RMS change: Improved (<−6.3), patients” value (“FSIQ-RMS change: Improved” for short) [3, 4] was 30.6% and the “FSIQ-RMS change: Stable (−6.3 < × < +6.3), patients” value [3, 4] was 40.8%. For the same compound, the “FSIQ-RMS change: Stable or Improved, patients” value [3, 4] was 71.4%, the “FSIQ-RMS change: Worsened (≥6.3), patients” value (shortened to “FSIQ-RMS change: Worsened”) [3, 4] was 28.6% and the “FSIQ-RMS change: Improved” value [3, 5] was 19.1%. For the same compound, the “FSIQ-RMS change: Stable (−6.3 < × < +6.3), patients” value [3, 5] was 45.2%, the “FSIQ-RMS change: Stable or Improved, patients” value [3, 5] was 64.4% and the “FSIQ-RMS change: Worsened” value [3, 5] was 35.6%. For the same compound, the “FSIQ-RMS change: Stable (−6.3 < × < +6.3), patients” value [3, 6] was 37.4%, the “FSIQ-RMS change: Stable or Improved, patients” value [3, 6] was 67.5% and the “FSIQ-RMS change: Worsened” value [3, 6] was 32.5%. The “FSIQ-RMS change: Improved” value [3, 7] was 31.4%, the “FSIQ-RMS change: Stable (−6.3 < × < +6.3), patients” value [3, 7] was 44.0% and the “FSIQ-RMS change: Stable or Improved, patients” value [3, 7] was 75.4%. The “FSIQ-RMS change: Worsened” value [3, 7] was 24.6% and the “FSIQ-RMS change: Improved” value ([3]; Week 108, no prior DMT treatment, listed as ponesimod) was 31.4%.
